How the values were obtained:
Test in all cases: KINOMEscan
Type in all cases: binding
FLT3 (ITD) = details: 1 μM
Protocol: (§1) In vitro profiling of Compound I-2 (1 μM) was performed using the DiscoveRx KINOMEscan® platform.

CAMKK1 = CAMKK1 (Homo sapiens (Human), UniProt Q8N5S9); details: read-out: percent of control
Protocol: as §1

STK36 = STK36 (Homo sapiens (Human), UniProt Q9NRP7); details: read-out: percent of control
Protocol: as §1

IGF1R = IGF1R (Homo sapiens (Human), UniProt P08069); details: read-out: percent of control
Protocol: as §1

PIK3CA(C420R) = PIK3CA(C420R) (Homo sapiens (Human), UniProt P42336, C420R); details: read-out: percent of control
Protocol: as §1

MAP3K2 = MAP3K2 (Homo sapiens (Human), UniProt Q9Y2U5); details: read-out: percent of control
Protocol: as §1

EGFR = EGFR (Homo sapiens (Human), UniProt P00533); details: read-out: percent of control
Protocol: as §1

EGFR(G719C) = EGFR(G719C) (Homo sapiens (Human), UniProt P00533, G719C); details: read-out: percent of control
Protocol: as §1

CAMKK2 = CAMKK2 (Homo sapiens (Human), UniProt Q96RR4); details: read-out: percent of control
Protocol: as §1

[1] = molecular target: TYK2(JH1domain-catalytic) (Homo sapiens (Human), UniProt P29597); details: read-out: percent of control
Protocol: as §1

MYO3B = MYO3B (Homo sapiens (Human), UniProt Q8WXR4); details: read-out: percent of control
Protocol: as §1

[2] = molecular target: ABL1(F317L)-nonphosphorylated (Homo sapiens (Human), UniProt P00519, F317L); details: read-out: percent of control
Protocol: as §1

RET (V804L) = RET (V804L) (Homo sapiens (Human), UniProt P07949, V804L); details: read-out: percent of control
Protocol: as §1

LIMK2 = LIMK2 (Homo sapiens (Human), UniProt P53671); details: read-out: percent of control
Protocol: as §1

[3] = molecular target: ABL1(H396P)-phosphorylated (Homo sapiens (Human), UniProt P00519, H396P); details: read-out: percent of control
Protocol: as §1

PIP5K1A = PIP5K1A (Homo sapiens (Human), UniProt Q99755); details: read-out: percent of control
Protocol: as §1

RIOK1 = RIOK1 (Homo sapiens (Human), UniProt Q9BRS2); details: read-out: percent of control
Protocol: as §1

MKK7 = MKK7 (Homo sapiens (Human), UniProt O14733); details: read-out: percent of control
Protocol: as §1

FGFR2 = FGFR2 (Homo sapiens (Human), UniProt P21802); details: read-out: percent of control
Protocol: as §1

[4] = molecular target: RSK1 (Kin.Dom.1-N-terminal) (Homo sapiens (Human), UniProt Q15418); details: read-out: percent of control
Protocol: as §1

QSK = QSK (Homo sapiens (Human), UniProt Q9Y2K2); details: read-out: percent of control
Protocol: as §1

PFCDPK1(P.falciparum) = PFCDPK1(P.falciparum) (Plasmodium falciparum (isolate 3D7), UniProt P62344); details: read-out: percent of control
Protocol: as §1

AURKB = AURKB (Homo sapiens (Human), UniProt Q96GD4); details: read-out: percent of control
Protocol: as §1

ABL2 = ABL2 (Homo sapiens (Human), UniProt P42684); details: read-out: percent of control
Protocol: as §1

ERBB2 = ERBB2 (Homo sapiens (Human), UniProt P04626); details: read-out: percent of control
Protocol: as §1

CAMK1 = CAMK1 (Homo sapiens (Human), UniProt Q14012); details: read-out: percent of control
Protocol: as §1

NEK9 = NEK9 (Homo sapiens (Human), UniProt Q8TD19); details: read-out: percent of control
Protocol: as §1

PFTAIRE2 = PFTAIRE2 (Homo sapiens (Human), UniProt Q96Q40); details: read-out: percent of control
Protocol: as §1

CDC2L2 = CDC2L2 (Homo sapiens (Human), UniProt Q9UQ88); details: read-out: percent of control
Protocol: as §1

ICK = ICK (Homo sapiens (Human), UniProt Q9UPZ9); details: read-out: percent of control
Protocol: as §1

[5] = molecular target: ABL1(M351T)-phosphorylated (Homo sapiens (Human), UniProt P00519, M351T); details: read-out: percent of control
Protocol: as §1

GRK1 = GRK1 (Homo sapiens (Human), UniProt Q15835); details: read-out: percent of control
Protocol: as §1

PIM3 = PIM3 (Homo sapiens (Human), UniProt Q86V86); details: read-out: percent of control
Protocol: as §1

SNRK = SNRK (Homo sapiens (Human), UniProt Q9NRH2); details: read-out: percent of control
Protocol: as §1

MARK2 = MARK2 (Homo sapiens (Human), UniProt Q7KZI7); details: read-out: percent of control
Protocol: as §1

MEK4 = MEK4 (Homo sapiens (Human), UniProt P45985); details: read-out: percent of control
Protocol: as §1

ABL1-nonphosphorylated = ABL1-nonphosphorylated (Homo sapiens (Human), UniProt P00519); details: read-out: percent of control
Protocol: as §1

BRAF(V600E) = BRAF(V600E) (Homo sapiens (Human), UniProt P15056, V600E); details: read-out: percent of control
Protocol: as §1

MEK4, sequence (P45985 whole entry): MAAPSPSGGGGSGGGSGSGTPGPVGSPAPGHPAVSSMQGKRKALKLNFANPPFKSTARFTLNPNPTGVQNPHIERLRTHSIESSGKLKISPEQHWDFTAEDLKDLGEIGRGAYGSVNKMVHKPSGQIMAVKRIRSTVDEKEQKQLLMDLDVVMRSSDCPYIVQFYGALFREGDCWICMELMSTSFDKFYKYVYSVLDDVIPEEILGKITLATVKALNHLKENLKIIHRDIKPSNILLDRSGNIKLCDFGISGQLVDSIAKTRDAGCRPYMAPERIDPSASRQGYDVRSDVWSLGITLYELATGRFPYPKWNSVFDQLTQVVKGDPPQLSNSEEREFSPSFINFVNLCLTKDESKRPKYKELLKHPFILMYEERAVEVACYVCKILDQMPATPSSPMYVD
ERBB2, sequence (P04626 23-1255): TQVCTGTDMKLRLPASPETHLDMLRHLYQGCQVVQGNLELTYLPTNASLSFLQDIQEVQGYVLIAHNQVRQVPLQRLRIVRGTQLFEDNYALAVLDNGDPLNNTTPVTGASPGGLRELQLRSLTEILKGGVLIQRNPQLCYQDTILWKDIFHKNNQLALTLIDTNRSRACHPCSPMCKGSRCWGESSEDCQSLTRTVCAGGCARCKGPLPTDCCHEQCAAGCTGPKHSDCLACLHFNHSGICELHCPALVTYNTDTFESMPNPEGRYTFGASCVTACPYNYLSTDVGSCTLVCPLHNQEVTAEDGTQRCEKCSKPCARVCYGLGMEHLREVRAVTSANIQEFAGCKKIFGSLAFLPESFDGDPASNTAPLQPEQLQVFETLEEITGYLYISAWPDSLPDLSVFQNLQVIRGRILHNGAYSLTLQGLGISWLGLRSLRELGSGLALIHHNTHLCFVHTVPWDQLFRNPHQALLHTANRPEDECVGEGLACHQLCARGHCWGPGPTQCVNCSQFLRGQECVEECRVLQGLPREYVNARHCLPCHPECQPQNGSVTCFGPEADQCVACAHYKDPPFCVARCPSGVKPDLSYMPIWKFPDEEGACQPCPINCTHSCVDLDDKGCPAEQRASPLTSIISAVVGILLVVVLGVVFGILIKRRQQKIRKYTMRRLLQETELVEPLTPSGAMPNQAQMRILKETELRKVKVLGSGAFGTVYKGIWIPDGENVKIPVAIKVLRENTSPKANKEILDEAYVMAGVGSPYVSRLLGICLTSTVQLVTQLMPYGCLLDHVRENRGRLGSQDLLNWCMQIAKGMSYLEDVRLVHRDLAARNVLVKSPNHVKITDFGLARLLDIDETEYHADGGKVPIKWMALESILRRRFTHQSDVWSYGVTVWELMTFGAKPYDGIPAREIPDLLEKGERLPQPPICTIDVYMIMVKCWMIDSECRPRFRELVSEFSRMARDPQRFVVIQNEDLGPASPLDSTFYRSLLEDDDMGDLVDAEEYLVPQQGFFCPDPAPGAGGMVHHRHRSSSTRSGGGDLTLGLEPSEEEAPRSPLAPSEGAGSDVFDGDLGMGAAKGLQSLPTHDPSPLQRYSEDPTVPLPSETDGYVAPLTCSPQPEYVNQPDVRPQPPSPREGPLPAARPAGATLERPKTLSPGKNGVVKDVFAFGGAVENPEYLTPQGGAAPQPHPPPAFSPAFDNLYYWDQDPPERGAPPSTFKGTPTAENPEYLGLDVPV
ABL2, sequence (P42684 whole entry): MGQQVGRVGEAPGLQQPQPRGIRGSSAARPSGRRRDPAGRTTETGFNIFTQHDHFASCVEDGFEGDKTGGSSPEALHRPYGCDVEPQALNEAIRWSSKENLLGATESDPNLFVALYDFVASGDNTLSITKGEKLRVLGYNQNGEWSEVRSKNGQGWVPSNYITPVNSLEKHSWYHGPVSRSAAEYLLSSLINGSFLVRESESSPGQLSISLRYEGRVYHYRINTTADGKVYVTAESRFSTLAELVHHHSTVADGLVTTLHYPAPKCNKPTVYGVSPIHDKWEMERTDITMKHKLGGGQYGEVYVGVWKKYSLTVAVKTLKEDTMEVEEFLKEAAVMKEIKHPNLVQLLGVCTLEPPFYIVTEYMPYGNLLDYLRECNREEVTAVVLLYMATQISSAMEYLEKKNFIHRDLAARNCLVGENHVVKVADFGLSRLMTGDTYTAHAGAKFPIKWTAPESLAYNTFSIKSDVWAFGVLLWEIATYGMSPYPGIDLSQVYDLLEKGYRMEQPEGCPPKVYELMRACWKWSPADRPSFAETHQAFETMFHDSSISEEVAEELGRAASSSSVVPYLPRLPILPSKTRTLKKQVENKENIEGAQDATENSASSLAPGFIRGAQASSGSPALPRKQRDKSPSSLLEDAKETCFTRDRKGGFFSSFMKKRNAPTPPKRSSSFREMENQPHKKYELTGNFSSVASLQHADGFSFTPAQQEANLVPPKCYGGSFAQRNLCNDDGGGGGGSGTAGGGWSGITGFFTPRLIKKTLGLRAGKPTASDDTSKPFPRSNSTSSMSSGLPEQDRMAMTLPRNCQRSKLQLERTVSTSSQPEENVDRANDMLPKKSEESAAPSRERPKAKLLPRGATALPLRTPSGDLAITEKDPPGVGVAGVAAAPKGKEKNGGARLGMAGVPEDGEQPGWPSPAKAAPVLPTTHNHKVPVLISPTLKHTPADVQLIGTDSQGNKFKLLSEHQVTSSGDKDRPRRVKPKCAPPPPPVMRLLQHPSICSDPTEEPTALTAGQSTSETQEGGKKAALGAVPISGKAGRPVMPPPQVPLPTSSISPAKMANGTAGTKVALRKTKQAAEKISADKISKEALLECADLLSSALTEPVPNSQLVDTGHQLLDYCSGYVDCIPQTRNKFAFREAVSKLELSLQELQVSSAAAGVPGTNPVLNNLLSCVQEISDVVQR
AURKB, sequence (Q96GD4 whole entry): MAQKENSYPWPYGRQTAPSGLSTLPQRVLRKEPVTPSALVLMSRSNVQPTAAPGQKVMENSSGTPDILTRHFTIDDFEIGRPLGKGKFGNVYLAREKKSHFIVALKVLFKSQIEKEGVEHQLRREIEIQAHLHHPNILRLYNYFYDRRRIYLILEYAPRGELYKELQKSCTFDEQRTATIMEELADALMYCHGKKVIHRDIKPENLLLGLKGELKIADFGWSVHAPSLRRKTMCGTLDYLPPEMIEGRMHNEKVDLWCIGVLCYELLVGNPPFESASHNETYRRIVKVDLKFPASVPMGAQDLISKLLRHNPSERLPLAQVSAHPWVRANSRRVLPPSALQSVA
SNRK, sequence (Q9NRH2 whole entry): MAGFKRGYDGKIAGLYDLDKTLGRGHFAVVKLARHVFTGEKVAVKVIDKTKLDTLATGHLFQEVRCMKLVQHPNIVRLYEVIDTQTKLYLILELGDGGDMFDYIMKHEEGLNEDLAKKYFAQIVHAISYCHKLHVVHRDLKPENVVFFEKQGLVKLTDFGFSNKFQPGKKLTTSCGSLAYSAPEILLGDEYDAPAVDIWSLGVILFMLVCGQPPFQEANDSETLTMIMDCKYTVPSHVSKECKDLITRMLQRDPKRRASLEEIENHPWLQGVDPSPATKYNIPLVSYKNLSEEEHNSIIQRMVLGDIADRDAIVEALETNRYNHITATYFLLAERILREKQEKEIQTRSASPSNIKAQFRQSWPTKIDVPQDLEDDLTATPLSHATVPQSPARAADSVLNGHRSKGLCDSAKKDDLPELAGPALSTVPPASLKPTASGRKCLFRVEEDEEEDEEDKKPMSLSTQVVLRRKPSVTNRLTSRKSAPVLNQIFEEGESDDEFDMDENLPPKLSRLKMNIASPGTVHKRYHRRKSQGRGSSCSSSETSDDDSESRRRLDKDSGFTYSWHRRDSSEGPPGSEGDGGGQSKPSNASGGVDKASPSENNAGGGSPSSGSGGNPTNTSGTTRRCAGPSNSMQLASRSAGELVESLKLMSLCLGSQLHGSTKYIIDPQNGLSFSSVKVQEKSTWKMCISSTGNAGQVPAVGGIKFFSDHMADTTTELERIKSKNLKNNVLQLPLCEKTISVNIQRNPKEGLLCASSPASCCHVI
GRK1, sequence (Q15835 whole entry): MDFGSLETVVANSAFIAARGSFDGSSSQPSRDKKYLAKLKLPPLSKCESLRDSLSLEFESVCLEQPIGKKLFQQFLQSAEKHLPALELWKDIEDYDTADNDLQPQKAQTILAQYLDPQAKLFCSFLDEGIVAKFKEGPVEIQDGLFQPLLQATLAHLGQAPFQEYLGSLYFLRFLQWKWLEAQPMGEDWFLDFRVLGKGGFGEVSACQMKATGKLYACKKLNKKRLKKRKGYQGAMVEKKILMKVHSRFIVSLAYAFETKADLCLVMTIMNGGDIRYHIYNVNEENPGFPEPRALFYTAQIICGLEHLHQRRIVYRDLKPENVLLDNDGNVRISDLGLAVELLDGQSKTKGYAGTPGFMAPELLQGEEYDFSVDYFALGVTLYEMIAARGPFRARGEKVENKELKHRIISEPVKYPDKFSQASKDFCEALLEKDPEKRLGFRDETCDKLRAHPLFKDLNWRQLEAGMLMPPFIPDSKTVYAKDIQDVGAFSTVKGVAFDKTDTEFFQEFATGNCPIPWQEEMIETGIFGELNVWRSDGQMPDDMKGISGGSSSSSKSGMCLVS

Structure (SMILES) | percent of control (FLT3 (ITD)) [%] | remaining binding at 1 µM (CAMKK1) [%] | remaining binding at 1 µM (STK36) [%] | remaining binding at 1 µM (IGF1R) [%] | remaining binding at 1 µM (PIK3CA(C420R)) [%] | remaining binding at 1 µM (MAP3K2) [%] | remaining binding at 1 µM (EGFR) [%] | remaining binding at 1 µM (EGFR(G719C)) [%] | remaining binding at 1 µM (CAMKK2) [%] | remaining binding at 1 µM [1] [%] | remaining binding at 1 µM (MYO3B) [%] | remaining binding at 1 µM [2] [%] | remaining binding at 1 µM (RET (V804L)) [%] | remaining binding at 1 µM (LIMK2) [%] | remaining binding at 1 µM [3] [%] | remaining binding at 1 µM (PIP5K1A) [%] | remaining binding at 1 µM (RIOK1) [%] | remaining binding at 1 µM (MKK7) [%] | remaining binding at 1 µM (FGFR2) [%] | remaining binding at 1 µM [4] [%] | further results
CCN1CCN(Cc2cc(NC(=O)c3ccc(C)c(-c4ccc5nc(NC(=O)C6CC6)cn5c4)c3)cc(C(F)(F)F)c2)CC1 [Compound I-6, 3-(2-(cyclopropanecarboxamido)imidazo[1,2-a]pyridin-6-yl)-N-(3-((4-ethylpiperazin-1-yl)methyl)-5-(trifluoromethyl)phenyl)-4-methylbenzamide] | 1.4 | 53 | 100 | 11 | 95 | 78 | 24 | 46 | 41 | 41 | 49 | 0 | 0 | 100 | 0.25 | 100 | 95 | 100 | 57 | 100 | remaining binding at 1 µM (QSK): 83%; remaining binding at 1 µM (PFCDPK1(P.falciparum)): 88%; remaining binding at 1 µM (AURKB): 80%; remaining binding at 1 µM (ABL2): 0.4%; remaining binding at 1 µM (ERBB2): 71%; remaining binding at 1 µM (CAMK1): 95%; remaining binding at 1 µM (NEK9): 92%; remaining binding at 1 µM (PFTAIRE2): 3.6%; remaining binding at 1 µM (CDC2L2): 34%; remaining binding at 1 µM (ICK): 68%; remaining binding at 1 µM [5]: 0.5%; remaining binding at 1 µM (GRK1): 93%; remaining binding at 1 µM (PIM3): 89%; remaining binding at 1 µM (SNRK): 99%; remaining binding at 1 µM (MARK2): 78%; remaining binding at 1 µM (MEK4): 71%; remaining binding at 1 µM (ABL1-nonphosphorylated): 0.1%; remaining binding at 1 µM (BRAF(V600E)): 5.9%
CCN1CCN(Cc2cc(NC(=O)c3ccc(C)c(-c4ccc5nc(NC(=O)C6CC6)cn5n4)c3)cc(C(F)(F)F)c2)CC1 [Compound I-2, 3-(2-(cyclopropanecarboxamido)imidazo[1,2-b]pyridazin-6-yl)-N-(3-((4-ethylpiperazin-1-yl)methyl)-5-(trifluoromethyl)phenyl)-4-methylbenzamide] | 1.6 | 12 | 66 | 0.7 | 85 | 28 | 31 | 53 | 28 | 54 | 80 | 0 | 0.15 | 96 | 0.3 | 100 | 100 | 84 | 67 | 97 | remaining binding at 1 µM (QSK): 92%; remaining binding at 1 µM (PFCDPK1(P.falciparum)): 84%; remaining binding at 1 µM (AURKB): 97%; remaining binding at 1 µM (ABL2): 0.4%; remaining binding at 1 µM (ERBB2): 82%; remaining binding at 1 µM (CAMK1): 92%; remaining binding at 1 µM (NEK9): 100%; remaining binding at 1 µM (PFTAIRE2): 0.9%; remaining binding at 1 µM (CDC2L2): 27%; remaining binding at 1 µM (ICK): 50%; remaining binding at 1 µM [5]: 0.8%; remaining binding at 1 µM (GRK1): 91%; remaining binding at 1 µM (PIM3): 90%; remaining binding at 1 µM (SNRK): 84%; remaining binding at 1 µM (MARK2): 96%; remaining binding at 1 µM (MEK4): 98%; remaining binding at 1 µM (ABL1-nonphosphorylated): 0%; remaining binding at 1 µM (BRAF(V600E)): 1.7%
